The source made the active and inactive calls. The calls are words filed in the database; no cut-off is given here.
What was measured:
[1] = species: Mus musculus; test: Inhibition of acetyl-CoA carboxylase in mouse SCR1163 cells assessed as reduction in [14C]-acetate incorporation into fatty acid at 0.1 to 1 uM after 4 hrs; assay type: cell-based
[2] = species: Mus musculus; test: Inhibition of acetyl-CoA carboxylase in mouse SCR1693 cells assessed as reduction in [14C]-acetate incorporation into fatty acid at 0.1 to 1 uM after 4 hrs; assay type: cell-based
[3] = species: Mus musculus; test: Cytotoxicity against mouse SCR1163 cells at 1.25 to 10 uM after 24 to 72 hrs by MTT assay; assay type: functional, cell-based

Compound	inhibition [1]	inhibition [2]	Activity [3]
CO[C@H]1CCCC[C@@H](c2ccccc2)OC(=O)[C@@H](C)[C@@]2(O)O[C@H]([C@@H](C)[C@H](O)[C@H]2OC)[C@@H](C)/C=C/[C@H]1OC	Active	Active	
CO[C@@H]1C/C=C/[C@H](C)[C@@H]2O[C@](O)([C@H](C)C(=O)O[C@H](c3ccccc3)CCCC1)[C@H](OC)[C@@H](O)[C@@H]2C	59%	48%	Active

Source: ChEMBL document CHEMBL3102694, “Synthesis of C11-Desmethoxy Soraphen A1α: A natural product analog that inhibits acetyl-CoA carboxylase” (ACS Med Chem Lett, 2013)
